Experimental data: the NIST ThermoML archive (doi:10.1016/j.jct.2013.12.033)
± gives the expanded uncertainty stated by the source.

Details: Liquid, Closed cell (Static) method

| Structure (SMILES) | vapor or sublimation pressure (273.15 K) | vapor or sublimation pressure (283.15 K) | vapor or sublimation pressure (293.15 K) | vapor or sublimation pressure (303.15 K) | vapor or sublimation pressure (313.15 K) | vapor or sublimation pressure (323.15 K) | vapor or sublimation pressure (333.15 K) | vapor or sublimation pressure (343.15 K) | vapor or sublimation pressure (353.15 K) | vapor or sublimation pressure (363.15 K) |
| --- | --- | --- | --- | --- | --- | --- | --- | --- | --- | --- |
| c1ccncc1 [pyridine] | 0.5993 ± 0.037 kPa | 1.136 ± 0.071 kPa | 2.049 ± 0.12 kPa | 3.535 ± 0.21 kPa | 5.863 ± 0.35 kPa | 9.383 ± 0.56 kPa | 14.55 ± 0.88 kPa | 21.92 ± 1.3 kPa | 32.17 ± 1.9 kPa | 46.13 ± 2.8 kPa |
| c1ccsc1 [thiophene] | 2.778 ± 0.17 kPa | 4.893 ± 0.29 kPa | 8.217 ± 0.49 kPa | 13.23 ± 0.8 kPa | 20.52 ± 1.2 kPa | 30.8 ± 1.9 kPa | 44.88 ± 2.7 kPa | 63.71 ± 3.8 kPa | 88.33 ± 5.3 kPa | 119.9 ± 7.2 kPa |
